# Source: patent US11192888B2, “Antibacterial compounds” (priority 2017, dated 2021)
# Where two headings read alike, the source gives them in different places. *1 amine or outer side, *2 acyl side, *3 side chain or, on linkers, in order; H or OH if unused. Where a SMILES comes first, the peptide text is derived from it. [ ]: non-standard residue; d: D form. dAla(ψthiazole) = C[C@@H](N[*:1])c1nc(C(=O)[*:2])cs1; Trp(4-Cl) = N[C@@H](Cc1c[nH]c2cccc(Cl)c12)C(=O)O; Dhb = C/C=C(\N)C(=O)O; Sar = CNCC(=O)O
# Legend:
# [1] = amide bond, 24-membered ring, PyBOP/HOBt/DIPEA, 0.5 mM
# [2] = test system: Clostridium difficile strains (21 clinical, 7 reference)
# [3] = test system: P. aeruginosa clinical strains and PAO1 (wild-type strain); experiment: Antibiotic sensitivity of P. aeruginosa clinical strains and PAO1 (MIC); format: cell-based, Pseudomonas aeruginosa
# From the text: In this regard, four clinical isolates of P. aeruginosa were obtained from the University of Nottingham.
molecule,measurement,setting,value
C=C1NC(=O)[C@@H](C)NC(=O)CNC(=O)[C@H](Cc2c[nH]c3cccc(Cl)c23)NC(=O)[C@H](Cc2c[nH]c3ccccc23)NC(=O)c2csc(n2)[C@@H](CO)NC(=O)CN(C)C1=O [Cyclo[D-Ser-Thz-Trp-Trp(4-C1)-Gly-D-Ala-Dha-Sar]],"ring closure, yield after HPLC",[1]; from H-dSer-Thz-Trp-Trp(4-Cl)-Gly-dAla-Dha-Sar-OH?,4%
"C/C=C1\NC(=O)[C@@H](C)NC(=O)CNC(=O)[C@H](Cc2c[nH]c3cccc(Cl)c23)NC(=O)[C@H](Cc2c[nH]c3ccccc23)NC(=O)c2csc(n2)[C@@H](C)NC(=O)CN(C)C1=O [Compound 9, Cyclo[D-Ala-Thz-Trp-Trp(4-Cl)-Gly-D-Ala-Dhb-Sar]] (cyclo([Dhb][Sar][dAla(ψthiazole)]W[Trp(4-Cl)]G[dA]))",MIC40,[2]; 28 C. difficile strains,0.5 µg/mL
same,MIC50,[2]; 28 C. difficile strains,0.50 µg/mL
same,MIC90,[2]; 28 C. difficile strains,0.50 µg/mL
same,MIC,[2]; C. difficile strain 630 (ribotype 012),0.25 µg/mL
same,MIC,[2]; C. difficile strain ATCC 9689 (ribotype 001),0.5 µg/mL
same,MIC,[2]; C. difficile strain ATCC 13366,1 µg/mL
same,MIC,[2]; C. difficile strain ATCC 43255,0.25 µg/mL
same,MIC,[2]; C. difficile strain ATCC 700057 (ribotype 038),0.25 µg/mL
same,MIC,[2]; C. difficile strain ATCC BAA 1875 (ribotype 078),0.5 µg/mL
same,MIC,[2]; C. difficile strain BI1-FDX^R,0.25 µg/mL
same,MIC,[2]; C. difficile strain Clin. 1,0.5 µg/mL
same,MIC,[2]; C. difficile strain Clin. 2,0.5 µg/mL
same,MIC,[2]; C. difficile strain Clin. 3,0.25 µg/mL
same,MIC,[2]; C. difficile strain Clin. 5,0.5 µg/mL
same,MIC,[2]; C. difficile strain Clin. 6,0.5 µg/mL
same,MIC,[2]; C. difficile strain Clin. 7,0.5 µg/mL
same,MIC,[2]; C. difficile strain Clin. 8,0.5 µg/mL
same,MIC,[2]; C. difficile strain Clin. 9,0.5 µg/mL
same,MIC,[2]; C. difficile strain Clin. 10,0.5 µg/mL
same,MIC,[2]; C. difficile strain Clin. 11,0.5 µg/mL
same,MIC,[2]; C. difficile strain Clin. 12,0.5 µg/mL
same,MIC,[2]; C. difficile strain Clin. 13,0.5 µg/mL
same,MIC,[2]; C. difficile strain Clin. 14,0.5 µg/mL
same,MIC,[2]; C. difficile strain Clin. 15,0.5 µg/mL
same,MIC,[2]; C. difficile strain Clin. 16,0.25 µg/mL
same,MIC,[2]; C. difficile strain Clin. 18,0.5 µg/mL
same,MIC,[2]; C. difficile strain Clin. 20,0.5 µg/mL
same,MIC,[2]; C. difficile strain Clin. 21,0.5 µg/mL
same,MIC,[2]; C. difficile strain Clin. 22,0.5 µg/mL
same,MIC,[2]; C. difficile strain Clin. 23,0.5 µg/mL
same,MIC,[2]; C. difficile strain Clin. 24,0.5 µg/mL
C=C1NC(=O)[C@@H](C)NC(=O)CNC(=O)[C@H](Cc2c[nH]c3cccc(C(F)(F)F)c23)NC(=O)[C@H](Cc2c[nH]c3ccccc23)NC(=O)c2csc(n2)[C@@H](C)NC(=O)CN(C)C1=O [Cyclo[D-Ala-Thz-Trp-Trp(4-CF3)-Gly-D-Ala-Dha-Sar]],"ring closure, yield after HPLC",[1]; from H-dAla-Thz-Trp-Trp(4-CF3)-Gly-dAla-Dha-Sar-OH?,6%
C=C1NC(=O)[C@@H](C)NC(=O)CNC(=O)[C@H](Cc2c[nH]c3cccc(OC)c23)NC(=O)[C@H](Cc2c[nH]c3ccccc23)NC(=O)c2csc(n2)[C@@H](C)NC(=O)CN(C)C1=O [Cyclo[D-Ala-Thz-Trp-Trp(4-MeO)-Gly-D-Ala-Dha-Sar]],"ring closure, yield after HPLC",[1]; from H-dAla-Thz-Trp-Trp(4-MeO)-Gly-dAla-Dha-Sar-OH?,11%
C/C=C1\NC(=O)[C@@H](C)NC(=O)CNC(=O)[C@H](Cc2c[nH]c3cccc(Cl)c23)NC(=O)[C@H](Cc2c[nH]c3ccccc23)NC(=O)c2csc(n2)[C@@H](C)NC(=O)CN(C)C1=O [Cyclo[D-Ala-Thz-Trp-Trp(4-Cl)-Gly-D-Ala-Dhb-Sar]],"ring closure, yield after HPLC",[1]; from H-dAla-Thz-Trp-Trp(4-Cl)-Gly-dAla-Dhb-Sar-OH?,5%
C=C1NC(=O)[C@@H](C)NC(=O)CNC(=O)[C@H](Cc2c[nH]c3ccccc23)NC(=O)[C@H](Cc2c[nH]c3ccccc23)NC(=O)c2csc(n2)[C@@H](C)NC(=O)CN(C)C1=O [Cyclo(D-Ala-D-Thiazole-L-Trp-L-Trp-Gly-D-Ala-Dha-Sar)],"ring closure, yield after HPLC","[1]; from H-dAla-Thz-Trp-Trp-Gly-dAla-Dha-Sar-OH?, DCM",7%
C=C1NC(=O)[C@@H](C)NC(=O)CNC(=O)[C@H](Cc2c[nH]c3cccc(Br)c23)NC(=O)[C@H](Cc2c[nH]c3ccccc23)NC(=O)c2csc(n2)[C@@H](C)NC(=O)CN(C)C1=O [Cyclo[D-Ala-Thz-Trp-Trp(4-Br)-Gly-D-Ala-Dha-Sar]],"ring closure, yield after HPLC",[1]; from H-dAla-Thz-Trp-Trp(4-Br)-Gly-dAla-Dha-Sar-OH?,7%
C[C@H]1NC(=O)CNC(=O)[C@H](Cc2c[nH]c3cccc(Cl)c23)NC(=O)[C@H](Cc2c[nH]c3ccccc23)NC(=O)c2csc(n2)[C@@H](C)NC(=O)CN(C)C(=O)[C@H]([C@@H](C)O)NC1=O [Cyclo[D-Ala-Thz-Trp-Trp(4-Cl)-Gly-D-Ala-Thr-Sar]],"ring closure, yield after HPLC",[1]; from H-dAla-Thz-Trp-Trp(4-Cl)-Gly-dAla-Thr-Sar-OH?,14%
C[C@H]1[C@H](NC(=O)/C(=N\OC(C)(C)C(=O)O)c2csc(N)n2)C(=O)N1S(=O)(=O)O [Aztreonam],MIC of antibiotic,[3]; strain PAO1,<9 µM
same,MIC of antibiotic,[3]; strain W4,18 µM
same,MIC of antibiotic,[3]; strain W14,>92 µM
same,MIC of antibiotic,[3]; strain W23,<9 µM
same,MIC of antibiotic,[3]; strain W46,<9 µM
Gentamicin,MIC of antibiotic,[3]; strain PAO1,<4 µM
same,MIC of antibiotic,[3]; strain W4,8 µM
same,MIC of antibiotic,[3]; strain W14,8 µM
same,MIC of antibiotic,[3]; strain W23,<4 µM
same,MIC of antibiotic,[3]; strain W46,<4 µM
